Data as given in US7541353B2, “Compounds for the treatment of hepatitis C” (Bristol-Myers Squibb Company, priority 2007, dated 2009).
Like-named read-outs stand apart in the source and are kept apart here.

Key:
HCV NS5B = target: T1, HCV NS5B (Hepatitis C virus genotype 1b, UniProt Q9WMX2); assay: Modified HCV NS5B RdRp enzyme assay (preincubation protocol); assay type: biochemical
T1 construct: The cDNA encoding the NS5B protein of HCV, genotype 1b; made in house; host or cells: E. coli BL21(DE3)
Method: HCV NS5B RdRp cloning, expression, and purification. The cDNA encoding the NS5B protein of HCV, genotype 1b, was cloned into the pET21a expression vector. The protein was expressed with an 18 amino acid C-terminal truncation to enhance the solubility. The E. coli competent cell line BL21(DE3) was used for expression of the protein. Cultures were grown at 37° C. for ˜4 hours until the cultures reached an optical density of 2.0 at 600 nm. The cultures were cooled to 20° C. and induced with 1 mM IPTG. Fresh ampicillin was added to a final concentration of 50 μg/ml and the cells were grown overnight at 20° C.
Cell pellets (3L) were lysed for purification to yield 15-24 mgs of purified NS5B. The lysis buffer consisted of 20 mM Tris-HCl, pH 7.4, 500 mM NaCl, 0.5% triton X-100, 1 mM DTT, 1 mM EDTA, 20% glycerol, 0.5 mg/ml lysozyme, 10 mM MgCl2, 15 ug/ml deoxyribonuclease I, and Complete™ protease inhibitor tablets (Roche). After addition of the lysis buffer, frozen cell pellets were resuspended using a tissue homogenizer. To reduce the viscosity of the sample, aliquots of the lysate were sonicated on ice using a microtip attached to a Branson sonicator. The sonicated lysate was centrifuged at 100,000×g for 1 hr at 4° C. and filtered through a 0.2 μm filter unit (Corning).
The protein was purified using two sequential chromatography steps: Heparin sepharose CL-6B and polyU sepharose 4B (Pharmacia). The chromatography buffers were identical to the lysis buffer but contained no lysozyme, deoxyribonuclease I, MgCl2 or protease inhibitor and the NaCl concentration of the buffer was adjusted according to the requirements for charging the protein onto the column. Each column was eluted with a NaCl gradient which varied in length from 5-50 column volumes depending on the column type. After the final chromatography step, the resulting purity of the enzyme is >90% based on SDS-PAGE analysis. The enzyme was aliquoted and stored at −80° C.
Standard HCV NS5B RdRp enzyme assay. HCV RdRp genotype 1b assays were run in a final volume of 60 μl in 96 well plates (Corning 3600). The assay buffer is composed of 20 mM Hepes, pH 7.5, 2.5 mM KCl, 2.5 mM MgCl2, 1 mM DTT, 1.6 U RNAse inhibitor (Promega N2515), 0.01 mg/ml BSA (Sigma B6917), and 2% glycerol. All compounds were serially diluted (3-fold) in DMSO and diluted further in water such that the final concentration of DMSO in the assay was 2%. HCV RdRp genotype 1b enzyme was used at a final concentration of 28 nM. A polyA template was used at 6 nM, and a biotinylated oligo-dT12 primer was used at 180 nM final concentration. Template was obtained commercially (Amersham 27-4110). Biotinylated primer was prepared by Sigma Genosys. 3H-UTP was used at 0.6 μCi (0.29 μM total UTP). Reactions were initiated by the addition of enzyme, incubated at 30° C. for 60 min, and stopped by adding 25 μl of 50 mM EDTA containing SPA beads (4 μg/μl, Amersham RPNQ 0007). Plates were read on a Packard Top Count NXT after >1 hr incubation at room temperature.
Modified HCV NS5B RdRp enzyme assay. A modified enzyme assay was performed essentially as described for the standard enzyme assay except for the following: The biotinylated oligo dT12 primer was precaptured on streptavidin-coated SPA beads by mixing primer and beads in assay buffer and incubating at room temperature for one hour. Unbound primer was removed after centrifugation. The primer-bound beads were resuspended in 20 mM Hepes buffer, pH 7.5 and used in the assay at final concentrations of 20 nM primer and 0.67 μg/μl beads. Order of addition in the assay: enzyme (1.75 nM) was added to diluted compound followed by the addition of a mixture of template (0.36 nM), 3H-UTP (0.6 μCi, 0.29 μM), and primer-bound beads, to initiate the reaction; concentrations given are final. Reactions were allowed to proceed for 4 hours at 30° C.
IC50 values for compounds were determined using seven different [I]. […]

HCV replicon cells = assay: HCV replicon FRET assay; assay type: cell-based
Method: FRET Assay Preparation. The HCV FRET screening assay was performed in 96-well cell culture plates. The FRET peptide (Anaspec, Inc.) (Taliani et al., Anal. Biochem. 1996, 240, 60-67) contains a fluorescence donor, EDANS, near one end of the peptide and an acceptor, DABCYL, near the other end. The fluorescence of the peptide is quenched by […] resonance energy transfer (RET) between the donor and the acceptor, but as the NS3 protease cleaves the peptide the products are released from RET quenching and the fluorescence of the donor becomes apparent. The assay reagent was made as follows: 5× cell Luciferase cell culture lysis reagent from Promega (#E153A) diluted to 1× with dH2O, NaCl added to 150 mM final, the FRET peptide diluted to 20 μM final from a 2 mM stock.
To prepare plates, HCV replicon cells, with or without a Renilla luciferase reporter gene, were trypsinized and plated in a 96-well plate with titrated test compounds added in columns 3 through 12; columns 1 and 2 contained a control compound (HCV control inhibitor), and the bottom row contained cells with DMSO only. The plates were then placed in a CO2 incubator at 37° C.
Assays. Subsequent to addition of the test compounds described above (FRET Assay Preparation), at various times the plate was removed and Alamar blue solution (Trek Diagnostics, #00-100) was added to measure cellular toxicity. After reading in a Cytoflour 4000 instrument (PE Biosystems), plates were rinsed with PBS and then used for FRET assay by the addition of 30 ul of the FRET peptide assay reagent described above (FRET Assay Preparation) per well. The plate was then placed into the Cytoflour 4000 instrument which had been set to 340 excite/490 emission, automatic mode for up to 20 cycles and the plate read in a kinetic mode. Typically, the signal to noise using an endpoint analysis after the reads was at least three-fold. Alternatively, after Alamar blue reading, plates were rinsed with PBS, then used for luciferase assay using the Promega Dual-Glo Luciferase Assay System or the Promega EnduRen Live Cell Substrate assay.
Compound analysis was performed by quantification of the relative HCV replicon inhibition and the relative cytotoxicity values. To calculate cytoxicity values, the average Alamar Blue fluorescence signals from the control wells were set as 100% non-toxic. The individual signals in each of the compound test wells were then divided by the average control signal and multiplied by 100% to determine […]. To calculate the HCV replicon inhibition values, an average background value was obtained from the two wells containing the highest amount of HCV control inhibitor at the end of the assay period. These numbers were similar to those obtained from naïve Huh-7 cells. The background numbers were then subtracted from the average signal obtained from the control wells and this number was used as 100% activity. The individual signals in each of the compound test wells were then divided by the averaged control values after background subtraction and multiplied by 100% to determine percent activity. EC50 values were calculated as the concentration which caused a 50% reduction in FRET or luciferase activity. The two numbers generated for the compound plate, percent cytoxicity and percent activity, were used to determine compounds of interest for further analysis.

T1 sequence (Q9WMX2 2420-2992): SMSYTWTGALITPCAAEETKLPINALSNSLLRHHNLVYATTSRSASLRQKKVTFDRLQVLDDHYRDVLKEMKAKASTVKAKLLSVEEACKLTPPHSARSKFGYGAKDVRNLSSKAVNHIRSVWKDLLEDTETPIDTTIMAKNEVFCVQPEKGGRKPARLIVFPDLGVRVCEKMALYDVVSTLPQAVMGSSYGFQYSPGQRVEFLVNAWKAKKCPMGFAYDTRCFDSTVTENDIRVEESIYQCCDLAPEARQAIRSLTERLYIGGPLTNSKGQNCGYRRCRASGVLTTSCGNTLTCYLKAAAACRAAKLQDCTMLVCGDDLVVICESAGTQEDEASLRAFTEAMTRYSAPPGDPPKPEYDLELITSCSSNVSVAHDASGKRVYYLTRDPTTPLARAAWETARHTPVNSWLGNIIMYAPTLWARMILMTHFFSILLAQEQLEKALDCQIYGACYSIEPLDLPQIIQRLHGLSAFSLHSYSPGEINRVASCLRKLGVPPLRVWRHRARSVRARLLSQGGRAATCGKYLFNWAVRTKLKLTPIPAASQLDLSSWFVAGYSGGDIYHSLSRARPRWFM

## COc1ccc2c(c1)C1CC1(C(=O)N1C3CCC1CC(N(C)Cc1ccccc1)C3)Cn1c-2c(C2CCCCC2)c2ccc(C(=O)NS(=O)(=O)C(C)C)cc21 (stereo not drawn) [drawing 55]
HCV NS5B; preincubation protocol
  IC50: 4.58 to 500 nM
HCV replicon cells; FRET assay
  EC50: 4.58 to 500 nM

## COc1ccc2c(c1)C1CC1(C(=O)N1C3CCC1CC(N(C)Cc1ccccc1)C3)Cn1c-2c(C2CCCCC2)c2ccc(C(=O)NS(=O)(=O)C(C)C)cc21 (stereo not drawn) [drawing 56]
HCV NS5B; preincubation protocol
  IC50: 4.58 to 500 nM
HCV replicon cells; FRET assay
  EC50: 4.58 to 500 nM

## COc1ccc2c(c1)C1CC1(C(=O)N1C3CCCC1COC3)Cn1c-2c(C2CCCCC2)c2ccc(C(=O)NS(=O)(=O)C3CCCCC3)cc21 (stereo not drawn) [drawing 68]
HCV NS5B
  IC50: 4.58 to 500 nM
HCV replicon cells; Hepatitis C virus
  EC50: 4.58 to 500 nM
